Reference: PMC3607106 (Biochemistry, 2009)

Experiments:
[1] = target: 2PITC-modified MIF (human MIF covalently modified at Pro1 by 2-piperidinoethyl isothiocyanate) (human) (UniProt P14174); test: SEC-MALS
MIF [2] = target: T1, MIF (Homo sapiens, UniProt P14174); test: MIF tautomerase activity; type: biochemical
T1 sequence (P14174 2-115 limits assumed): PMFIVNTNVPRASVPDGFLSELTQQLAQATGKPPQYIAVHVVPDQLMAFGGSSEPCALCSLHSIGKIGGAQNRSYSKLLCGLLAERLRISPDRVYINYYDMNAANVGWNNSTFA

MIF [3] = target: T1, MIF; test: Covalent modification of MIF by MALDI-TOF MS and tryptic peptide mapping; type: binding; conditions: for site of covalent modification of MIF: trypsin digestion, peptide mapping, MS/MS, 10 μM
α-synuclein = α-synuclein (Homo sapiens, UniProt P37840); test: BITC modification specificity by MALDI-TOF; type: binding; conditions: equimolar, 1 h or overnight at RT
HeLa cells = test: Phospho Akt activation by MIF; type: cell-based, human
murine MIF = murine MIF (Mus musculus, UniProt P34884); test: MIF tautomerase activity; type: biochemical; conditions: read-out: inhibition of the tautomerase activity
MIF [4] = test: Covalent modification of MIF by MALDI-TOF MS and tryptic peptide mapping; type: binding, human; conditions: 10 μM BITC, 60 min
ubiquitin = ubiquitin (Homo sapiens, UniProt P0CG47); test: BITC modification specificity by MALDI-TOF; type: binding; conditions: equimolar, 1 h or overnight at RT
lysozyme = test: BITC modification specificity by MALDI-TOF; type: binding; conditions: equimolar, 1 h or overnight at RT
human macrophages = test: Glucocorticoid overriding assay; type: cell-based
MIF [5] = target: T1, MIF; test: Sedimentation velocity analytical ultracentrifugation of MIF; conditions: MIF 10 μM preincubated with 6 μM BITC 1 h RT
[6] = target: AITC-modified MIF (human MIF covalently modified at Pro1 by allyl isothiocyanate) (human) (UniProt P14174); test: SEC-MALS
[7] = target: BITC-modified MIF (human MIF covalently modified at Pro1 by benzyl isothiocyanate) (human) (UniProt P14174); test: SEC-MALS
[8] = target: BITC-modified MIF (human MIF covalently modified at Pro1 by benzyl isothiocyanate) (human) (UniProt P14174); test: AUC
[9] = target: EITC-modified MIF (human MIF covalently modified at Pro1 by ethyl isothiocyanate) (human) (UniProt P14174); test: SEC-MALS
[10] = target: MITC-modified MIF (human MIF covalently modified at Pro1 by methallyl isothiocyanate) (human) (UniProt P14174); test: SEC-MALS
[11] = target: human macrophage migration inhibitory factor (MIF), unmodified (human) (UniProt P14174); test: SEC-MALS
[12] = target: human macrophage migration inhibitory factor (MIF), unmodified (human) (UniProt P14174); test: AUC

2PITC-modified MIF (human MIF covalently modified at Pro1 by 2-piperidinoethyl isothiocyanate) (from UniProt P14174 1-115) (natural protein)
stoichiometry N [1]: 3

S=C=NCCN1CCCCC1 [2PITC, 2-Piperidinoethyl isothiocyanate]
IC50 (MIF [2]): 3.09 µM
site of covalent modification of MIF (MIF [3]): shown to modify MIF at the N-terminal Pro residue

C=CCN=C=S [AITC, allyl isothiocyamate]
site of covalent modification of MIF (MIF [3]): shown to modify MIF at the N-terminal Pro residue

S=C=NCc1ccccc1 [BITC, Benzyl isothiocyanate]
modification of α-synuclein (MS) (α-synuclein): No modification was detected
inhibition at 10 µM (MIF [2]; read-out: inhibition of the tautomerase activity): 100%
MIF-induced Akt phosphorylation (HeLa cells; BITC 1 and 10 μM, MIF 50 ng/mL, 2 h): inhibited MIF-induced Akt phosphorylation
baseline Akt phosphorylation (HeLa cells; BITC alone): did not modify baseline Akt phosphorylation
inhibition at 10 µM (murine MIF): 100%
formation of BITC-MIF adduct (MALDI-TOF) (MIF [3]; concentrations > 10 μM, MIF 15 μM, Tris 50 mM pH 7.4, 60 min): complete conversion to the singly modified form of MIF
site of covalent modification of MIF (MIF [3]): modification takes place at the N-terminal proline residue
modification of inactive MIF proteins (MIF [4]; R73AΔ5, R73AΔ10 or P107): no modification was observed
modification of enzymatically active forms of MIF (MIF [4]; Wt, N110C and R73A): total modification
modification of ubiquitin (MS) (ubiquitin): No modification was detected
modification of lysozyme (MS) (lysozyme): No modification was detected
MIF-mediated dexamethasone overriding (human macrophages; BITC 10 μM, MIF 100 ng/mL, Dex 100 nM, LPS 100 ng/mL, 4 h): abrogated MIF-mediated dexamethasone overriding
TNF production (human macrophages; BITC 10 μM, LPS-stimulated, compared with dexamethasone): decreased TNF production even more potently than dexamethasone
macrophage viability (human macrophages; culture conditions used to induce TNF production (data not shown)): did not alter macrophage viability
quaternary structure distribution of MIF (sedimentation velocity) (MIF [5]): sedimented predominantly as a single species

S=C=NC1CC1 [CPITC, cyclopropyl isothiocyanate]
site of covalent modification of MIF (MIF [3]): shown to modify MIF at the N-terminal Pro residue

CCN=C=S [EITC, ethyl isothiocyanate]
site of covalent modification of MIF (MIF [3]): shown to modify MIF at the N-terminal Pro residue

C=C(C)CN=C=S [MITC, methallyl Isothiocyanate]
site of covalent modification of MIF (MIF [3]): shown to modify MIF at the N-terminal Pro residue

C[C@@H]1C[C@H]2[C@@H]3CCC4=CC(=O)C=C[C@]4(C)[C@@]3(F)[C@@H](O)C[C@]2(C)[C@@]1(O)C(=O)CO [dexamethasone, reference compound]
TNF production by LPS-stimulated monocytes (human macrophages; dexamethasone 100 nM): inhibited TNF production

AITC-modified MIF (human MIF covalently modified at Pro1 by allyl isothiocyanate) (from UniProt P14174 1-115) (natural protein)
stoichiometry N [6]: 3

BITC-modified MIF (human MIF covalently modified at Pro1 by benzyl isothiocyanate) (from UniProt P14174 1-115) (natural protein)
stoichiometry N [7]: 3
stoichiometry N [8]: 3

EITC-modified MIF (human MIF covalently modified at Pro1 by ethyl isothiocyanate) (from UniProt P14174 1-115) (natural protein)
stoichiometry N [9]: 3

MITC-modified MIF (human MIF covalently modified at Pro1 by methallyl isothiocyanate) (from UniProt P14174 1-115) (natural protein)
stoichiometry N [10]: 3

human macrophage migration inhibitory factor (MIF), unmodified (from UniProt P14174 1-115) (natural protein)
stoichiometry N [11]: 3
stoichiometry N [12]: 3
